Values of other authors, collected in patent US20050226899A1, “Cosmetic mask composition” (priority 2004, published 2005).

Tested on: skin
Details: lotion, up to 5% by weight retinoic acid

With `CC1=C(/C=C/C(C)=C/C=C/C(C)=C/C(=O)O)C(C)(C)CCC1` [retinoic acid] as the compound, how does the irritative phenomena read?
The irritative phenomena was “some treatments had to be interrupted due to the onset of significant irritative phenomena”.
